Measured values reported in patent US5468615A, “Binding assay employing a synthetic gene for D4 dopamine receptors” (The Upjohn Company, priority 1993, dated 1995).

How the values were obtained:
synthetic D4 receptor [1] = biological target: T1, synthetic D4 receptor (Homo sapiens, UniProt P21917, DEL265-296); test: (3H)spiperone radioligand binding, membranes of LacI (CHO) cells expressing synthetic D4 receptor (line D4-19); design: expressed in transfected cells; details: Scatchard transformation of saturation binding; line D4-19, IPTG induced
T1 sequence (P21917 with tags, fused parts or gaps DEL271-302): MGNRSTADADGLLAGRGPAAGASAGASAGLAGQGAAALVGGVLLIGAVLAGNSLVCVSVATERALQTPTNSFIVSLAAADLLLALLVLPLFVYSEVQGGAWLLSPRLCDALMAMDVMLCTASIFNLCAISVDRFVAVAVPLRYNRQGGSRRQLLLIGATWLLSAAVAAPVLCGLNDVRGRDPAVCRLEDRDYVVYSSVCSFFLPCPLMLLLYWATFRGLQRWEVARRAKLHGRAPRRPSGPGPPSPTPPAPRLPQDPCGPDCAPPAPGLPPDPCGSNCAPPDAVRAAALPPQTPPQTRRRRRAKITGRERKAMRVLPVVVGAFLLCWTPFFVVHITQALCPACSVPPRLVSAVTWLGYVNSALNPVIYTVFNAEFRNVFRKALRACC
Description: (§1) LacI synthetic D4 transfected cells were grown in the presence of 100 μM IPTG for 48 hours prior to harvest. Cells grown in 100 mm dishes were rinsed once with 5 mls of ice cold Ca^2+ /Mg^2+ free PBS and scraped into 5 mls of the same buffer. Cells were pelleted (500×g, 5 minutes), and resuspended in 25 mM Tris, 5 mM EDTA, 5 mM EGTA, pH 7.5 (TEE), and frozen in liquid nitrogen. After thawing, the cells were homogenized and centrifuged at 1,000×g to remove nuclei and unbroken cells. The supernatant was centrifuged at 20,000×g, the membrane pellet was washed once with TEE, resuspended in binding buffer, and frozen in liquid nitrogen. Membrane aliquots were stored at -70° C.
(§2) Incubations were for 1 hour at 30° C. Assays were stopped by filtration through Whatman GF/B filters followed by 2×10 ml washes with ice cold 50 mM Tris, pH 7.5. The filters were counted by liquid scintillation spectroscopy.

synthetic D4 receptor [2] = biological target: T1, synthetic D4 receptor; test: (3H)spiperone radioligand binding, membranes of HEK293 cells expressing synthetic D4 receptor (line D4-24); design: expressed in transfected cells; host or cells: HEK293 cells (EBV-based vector pCEP4), line D4-24
Description: Each point is the mean of duplicates with non-specific binding subtracted.
as §1, §2

D4 receptors = details: CHO cells expressing D4 receptors
Description: AMP accumulation was measured in intact D4-19 cells plated at a density of 15,000 cells/well in a 24 well plate 48 hours prior to the experiment. The cells were incubated in serum free medium 1 hour prior to the experiment. Fresh medium (0.5 ml) containing 100 μM forskolin, 100 μM IBMX and varying concentrations of drugs were added to each well and cAMP was allowed to accumulate for 15 minutes at 30° C. The reactions were terminated by the removal of the medium and the addition of 100 μl cold 7.5% (TCA) trichloroacetic acid. The samples were diluted by the addition of 1.0 ml 50 mM sodium acetate, pH 6.2 and aliquots were assayed by RIA using Biomedical Technologies Incorporated cAMP RIA kit.
cAMP accumulation was measured in forskolin stimulated cells as described in methods. Dopamine (10 μM) was added to 3 wells (DA). […] The bars are the averages of the three wells expressed as the percentage of the forskolin response.

schizophrenics = details: unlike other antipsychotic drugs; Casey (1989); cited from earlier work

## O=C(CCCN1CCC2(CC1)C(=O)NCN2c1ccccc1)c1ccc(F)cc1 [(^3 H)-spiperone]
Synthetic D4 receptor [1]
  Bmax: 260 fmol/mg protein
Synthetic D4 receptor [2]; D4-24 cells, 540 pM 3H-spiperone, up to at least 12 passages over 10 weeks (FIG. 5)
  receptor expression over passages (3H-spiperone binding): remains constant
Synthetic D4 receptor [2]; Scatchard analysis of saturation binding, line D4-24 (FIG. 4)
  Bmax: 736 fmol/mg protein

## NCCc1ccc(O)c(O)c1 [dopamine]
D4 receptors; 10 μM dopamine, forskolin stimulated (FIG. 6)
  inhibition of cAMP accumulation: Inhibition of cAMP accumulation

## CN1CCN(C2=Nc3cc(Cl)ccc3Nc3ccccc32)CC1 [clozapine]
schizophrenics
  tardive dyskinesia: does not cause tardive dyskinesia
D4 receptors; 10 μM clozapine with 10 μM dopamine (FIG. 6)
  antagonism of dopamine inhibition of cAMP accumulation: Antagonism
